Legend:
[1] = system: rats with acute myocardial ischemia; test: Area of myocardial infarction in rats with acute myocardial ischemia (coronary artery ligation); assay type: in vivo, rat; conditions: 24 h after coronary artery ligation
Procedure: At 0.5 h after the rats of these groups were administered intragastrically, the standard II lead electrocardiogram (before modeling) was recorded, and the height of ST-T segment was measured. The rats of sham operation group were then subjected to coronary artery braid without ligation, and the rats of other groups were subjected to coronary artery ligation in accordance with the following method to establish cute myocardial ischemia models. The rats were subjected to etherization, fixed at supine position, and their normal electrocardiograms (before modeling) were recorded. The skin of left thorax was incised under aseptic conditions, the 4th intercostal muscles were isolated in blunt way, the heart was extruded by light pressure to the right thorax, the left anterior descending coronary artery was ligated at a position 2˜3 mm departing from the left coronary artery origin and between the pulmonary conus and the left auricle of heart, then the heart was sent back to thorax cavity immediately and sutured the incision. Penicillin was smeared topically for the prevention of infections. After operation, the electrocardiogram of postischemia was recorded immediately (at 0 min after modeling), and the height of ST-T segment was measured.

[2] = system: rats with middle cerebral artery occlusion; test: Cerebral microcirculatory blood flow in rats with middle cerebral artery occlusion; assay type: in vivo, rat
Procedure: 60 SD rats with a body weight of 220±20 g were randomly divided into normal control group, model control group, salvianic acid injection group (ip. 1 mL/kg), and group of bornyl β-(3,4-dihydroxylphenyl)-α-hydroxylpropionate ester at a small, middle and large dose respectively (ip. 5, 15, and 35 mg/kg). The rats of normal group and model group were administered with equal-volume of physiologic saline by ip. The rats were anesthetized by intraperitoneal injection of 1% pentobarbital sodium at an amount of 40 mg/kg, then placed at supine position, head fixed, and cut skin along cervical middle line. Trachea cannula, was inserted into the rats and they were allowed to spontaneous respire. Right common jugular vein and common carotid artery were isolated and a suture was introduced for later use. Animals were fixed on a rat stereotaxic apparatus, a cranial window with a size of 6×8 mm was opened at the right temple with a dental drill, after hemostasis, cerebral dura mater was cut open with scissors to expose cerebral pia mater. The window was covered and sealed with glass and dental cement, and the laser probe of a laser-doppler microcirculatory blood flow meter was fixed on the cranial window. Then the animals were fixed at lateral position, the right common carotid artery was lifted, ligated at the proximal part and carefully cut with scissors, a nylon suture having a diameter of about 0.3 mm was introduced into the artery. The distance between the artery cut and the paropia of the rats was marked before the suture was introduced. […] When the suture arrived at middle cerebral artery, an abrupt decrease of the microcirculatory blood flow would be observed. After the observation of a decrease in the microcirculatory blood flow, the suture was further penetrated by about 1 mm, and the distal end of the cut and the suture in the artery were ligated securely. Spare suture was cut-off. After the end of the test, it was checked whether the nylon suture blocked the initiation site of the middle cerebral artery, and the data of any animal whose artery was not blocked were cancelled. The animals of the control group were not treated. After the cranial window was prepared, the probe of J I2200 type laser-doppler microcirculatory blood flow meter was fixed at the cranial window, and the probe was maintained without displacement and rotation during the whole test. The microcirculatory blood flows before ligation and 5, 15, 30, 45 and 60 min after ligation were recorded, and the data of the animals in the drug-treatment groups were recorded at the same time points. The mean microcirculatory blood flow observed within 1 min at each time point was designated as the microcirculatory blood flow of the respective time point.

CC1(C)C2CCC1(C)C(OC(=O)C(O)Cc1ccc(O)c(O)c1)C2 (stereo not drawn) [bornyl salvianate ester, bornyl β-(3,4-dihydroxylphenyl)-α-hydroxylpropionate ester]
Infarct region weight ([1]; 10 mg/kg intragastric): 0.20 ± 0.05 g | Non-infarct region weight ([1]; 10 mg/kg intragastric): 0.47 ± 0.07 g | Percentage (infarct cardiac muscles of whole ventricle, by weight) ([1]; 10 mg/kg intragastric): 30.09 ± 5.69% | Ventricle weight ([1]; 10 mg/kg intragastric): 0.68 ± 0.09 g | Infarct region weight ([1]; 20 mg/kg intragastric): 0.18 ± 0.05 g | Non-infarct region weight ([1]; 20 mg/kg intragastric): 0.49 ± 0.09 g | Percentage (infarct cardiac muscles of whole ventricle, by weight) ([1]; 20 mg/kg intragastric): 25.73 ± 6.35 % | Ventricle weight ([1]; 20 mg/kg intragastric): 0.68 ± 0.08 g | Infarct region weight ([1]; 40 mg/kg intragastric): 0.18 ± 0.04 g | Non-infarct region weight ([1]; 40 mg/kg intragastric): 0.45 ± 0.06 g | Percentage (infarct cardiac muscles of whole ventricle, by weight) ([1]; 40 mg/kg intragastric): 28.95 ± 5.57 % | Ventricle weight ([1]; 40 mg/kg intragastric): 0.63 ± 0.07 g | Microcirculatory blood flow ([2]; 5 mg/kg ip, 5 min after ligation): 11.4 ± 5.4 mL | Microcirculatory blood flow ([2]; 5 mg/kg ip, 15 min after ligation): 12.4 ± 4.6 mL | Microcirculatory blood flow ([2]; 5 mg/kg ip, 30 min after ligation): 12.9 ± 5.1 mL | Microcirculatory blood flow ([2]; 5 mg/kg ip, 45 min after ligation): 16.1 ± 4.1 mL | Microcirculatory blood flow ([2]; 5 mg/kg ip, 60 min after ligation): 16.0 ± 6.9 mL | Microcirculatory blood flow ([2]; 15 mg/kg ip, 5 min after ligation): 9.4 ± 3.7 mL | Microcirculatory blood flow ([2]; 15 mg/kg ip, 15 min after ligation): 12.8 ± 5.6 mL | Microcirculatory blood flow ([2]; 15 mg/kg ip, 30 min after ligation): 20.7 ± 3.2 mL | Microcirculatory blood flow ([2]; 15 mg/kg ip, 45 min after ligation): 25.0 ± 5.2 mL | Microcirculatory blood flow ([2]; 15 mg/kg ip, 60 min after ligation): 24.4 ± 4.8 mL | cerebral microcirculatory blood flow (in words) ([2]; 15 mg/kg, 30 minutes after the administration): increased slightly | Microcirculatory blood flow ([2]; 35 mg/kg ip, 5 min after ligation): 10.8 ± 2.7 mL | Microcirculatory blood flow ([2]; 35 mg/kg ip, 15 min after ligation): 19.4 ± 5.1 mL | Microcirculatory blood flow ([2]; 35 mg/kg ip, 30 min after ligation): 32.7 ± 6.2 mL | Microcirculatory blood flow ([2]; 35 mg/kg ip, 45 min after ligation): 35.4 ± 8.2 mL | Microcirculatory blood flow ([2]; 35 mg/kg ip, 60 min after ligation): 35.2 ± 5.8 mL | cerebral microcirculatory blood flow (in words) ([2]; 35 mg/kg, 15 minutes after the administration): increased slightly

— patent publication US8017786B2, “Substituted β-phenyl-α-hydroxy-propanoic acid, synthesis method and use thereof” (Northwest University, priority 2006, dated 2011)
